Measured values: PubChem BioAssay (NCI)
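Briefly, cells in 96-well plates were exposed to five compound concentrations for 48 h, and endpoints were estimated by linear interpolation. The concentration for 50% growth inhibition is given as GI50. At the TGI there is no net growth.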

Legend:
Assay in all cases: NCI-60 cell line screen, 48 h
786-0 renal = system: 786-0 renal
A498 renal = system: A498 renal
A549 NSCLC = system: A549 NSCLC
ACHN renal = system: ACHN renal
BT-549 breast = system: BT-549 breast
CAKI-1 renal = system: CAKI-1 renal
CCRF-CEM leukemia = system: CCRF-CEM leukemia
COLO 205 colon = system: COLO 205 colon
DU-145 prostate = system: DU-145 prostate
HCC-2998 colon = system: HCC-2998 colon
HCT-116 colon = system: HCT-116 colon
HCT-15 colon = system: HCT-15 colon
HL-60(TB) leukemia = system: HL-60(TB) leukemia
HOP-62 NSCLC = system: HOP-62 NSCLC
HOP-92 NSCLC = system: HOP-92 NSCLC
HT29 colon = system: HT29 colon
IGROV1 ovarian = system: IGROV1 ovarian
K-562 leukemia = system: K-562 leukemia
KM12 colon = system: KM12 colon
LOX IMVI melanoma = system: LOX IMVI melanoma
MALME-3M melanoma = system: MALME-3M melanoma
MCF7 breast = system: MCF7 breast
MDA-MB-231 breast = system: MDA-MB-231 breast
MDA-MB-435 = system: MDA-MB-435
MOLT-4 leukemia = system: MOLT-4 leukemia
NCI-H226 lung = system: NCI-H226 lung
NCI-H23 lung = system: NCI-H23 lung
NCI-H460 lung = system: NCI-H460 lung
NCI-H522 lung = system: NCI-H522 lung
NCI/ADR-RES ovarian = system: NCI/ADR-RES ovarian
OVCAR-3 ovarian = system: OVCAR-3 ovarian
OVCAR-4 ovarian = system: OVCAR-4 ovarian
OVCAR-5 ovarian = system: OVCAR-5 ovarian
OVCAR-8 ovarian = system: OVCAR-8 ovarian
PC-3 prostate = system: PC-3 prostate
RPMI-8226 leukemia = system: RPMI-8226 leukemia
RXF 393 renal = system: RXF 393 renal
SF-268 CNS = system: SF-268 CNS
SF-295 CNS = system: SF-295 CNS
SF-539 CNS = system: SF-539 CNS
SK-MEL-2 melanoma = system: SK-MEL-2 melanoma
SK-MEL-28 melanoma = system: SK-MEL-28 melanoma
SK-MEL-5 melanoma = system: SK-MEL-5 melanoma
SK-OV-3 ovarian = system: SK-OV-3 ovarian
SN12C renal = system: SN12C renal
SNB-19 CNS = system: SNB-19 CNS
SNB-75 CNS = system: SNB-75 CNS
SR leukemia = system: SR leukemia
SW-620 colon = system: SW-620 colon
T-47D breast = system: T-47D breast
TK-10 renal = system: TK-10 renal
U251 CNS = system: U251 CNS
UACC-257 melanoma = system: UACC-257 melanoma
UACC-62 melanoma = system: UACC-62 melanoma
UO-31 renal = system: UO-31 renal

SMILES: CCn1nc(-c2ccc(C(=O)OC)cc2)nc2c(=O)n(C)c(=O)nc1-2
- GI50 (786-0 renal): 1.32 µM
- TGI (786-0 renal): 3.31 µM
- GI50 (A498 renal): 0.166 µM
- TGI (A498 renal): 0.988 µM
- GI50 (A549 NSCLC): 0.413 µM
- TGI (A549 NSCLC): 1.72 µM
- GI50 (ACHN renal): 1.08 µM
- TGI (ACHN renal): 2.26 µM
- GI50 (BT-549 breast): 1.55 µM
- TGI (BT-549 breast): 2.99 µM
- GI50 (CAKI-1 renal): 1.22 µM
- TGI (CAKI-1 renal): 2.46 µM
- GI50 (CCRF-CEM leukemia): 0.566 µM
- TGI (CCRF-CEM leukemia): 11.3 µM
- GI50 (COLO 205 colon): 0.211 µM
- TGI (COLO 205 colon): 0.643 µM
- GI50 (DU-145 prostate): 1.11 µM
- TGI (DU-145 prostate): 2.32 µM
- GI50 (HCC-2998 colon): 0.763 µM
- TGI (HCC-2998 colon): 2.24 µM
- GI50 (HCT-116 colon): 0.283 µM
- TGI (HCT-116 colon): 1.01 µM
- GI50 (HCT-15 colon): 0.371 µM
- TGI (HCT-15 colon): 1.61 µM
- GI50 (HL-60(TB) leukemia): 0.319 µM
- TGI (HL-60(TB) leukemia): 1.15 µM
- GI50 (HOP-62 NSCLC): 1.07 µM
- TGI (HOP-62 NSCLC): 2.58 µM
- GI50 (HOP-92 NSCLC): 1.72 µM
- TGI (HOP-92 NSCLC): 3.39 µM
- GI50 (HT29 colon): 0.266 µM
- TGI (HT29 colon): 2.4 µM
- GI50 (IGROV1 ovarian): 1.08 µM
- TGI (IGROV1 ovarian): 2.45 µM
- GI50 (K-562 leukemia): 0.251 µM
- TGI (K-562 leukemia): 1.09 µM
- GI50 (KM12 colon): 0.421 µM
- TGI (KM12 colon): 2.23 µM
- GI50 (LOX IMVI melanoma): 0.375 µM
- TGI (LOX IMVI melanoma): 1.5 µM
- GI50 (MALME-3M melanoma): 0.216 µM
- TGI (MALME-3M melanoma): 0.836 µM
- GI50 (MCF7 breast): 0.148 µM
- TGI (MCF7 breast): 0.372 µM
- GI50 (MDA-MB-231 breast): 0.461 µM
- TGI (MDA-MB-231 breast): 6.33 µM
- GI50 (MDA-MB-435): 0.162 µM
- TGI (MDA-MB-435): 0.31 µM
- GI50 (MOLT-4 leukemia): 0.393 µM
- TGI (MOLT-4 leukemia): 2.41 µM
- GI50 (NCI-H226 lung): 1.36 µM
- TGI (NCI-H226 lung): 2.69 µM
- GI50 (NCI-H23 lung): 1.22 µM
- TGI (NCI-H23 lung): 3.16 µM
- GI50 (NCI-H460 lung): 0.488 µM
- TGI (NCI-H460 lung): 3.27 µM
- GI50 (NCI-H522 lung): 0.484 µM
- TGI (NCI-H522 lung): 1.99 µM
- GI50 (NCI/ADR-RES ovarian): 0.484 µM
- TGI (NCI/ADR-RES ovarian): 2.42 µM
- GI50 (OVCAR-3 ovarian): 0.181 µM
- TGI (OVCAR-3 ovarian): 0.566 µM
- GI50 (OVCAR-4 ovarian): 0.479 µM
- TGI (OVCAR-4 ovarian): 1.88 µM
- GI50 (OVCAR-5 ovarian): 0.46 µM
- TGI (OVCAR-5 ovarian): 1.77 µM
- GI50 (OVCAR-8 ovarian): 0.368 µM
- TGI (OVCAR-8 ovarian): 1.45 µM
- GI50 (PC-3 prostate): 0.347 µM
- TGI (PC-3 prostate): 8.22 µM
- GI50 (RPMI-8226 leukemia): 0.34 µM
- TGI (RPMI-8226 leukemia): 1.76 µM
- GI50 (RXF 393 renal): 1.57 µM
- TGI (RXF 393 renal): 3.26 µM
- GI50 (SF-268 CNS): 1.12 µM
- TGI (SF-268 CNS): 3.06 µM
- GI50 (SF-295 CNS): 0.637 µM
- TGI (SF-295 CNS): 1.98 µM
- GI50 (SF-539 CNS): 0.359 µM
- TGI (SF-539 CNS): 1.55 µM
- GI50 (SK-MEL-2 melanoma): 0.524 µM
- TGI (SK-MEL-2 melanoma): 2.04 µM
- GI50 (SK-MEL-28 melanoma): 1.38 µM
- TGI (SK-MEL-28 melanoma): 2.88 µM
- GI50 (SK-MEL-5 melanoma): 0.128 µM
- TGI (SK-MEL-5 melanoma): 0.26 µM
- GI50 (SK-OV-3 ovarian): 1.45 µM
- TGI (SK-OV-3 ovarian): 2.75 µM
- GI50 (SN12C renal): 0.193 µM
- TGI (SN12C renal): 0.411 µM
- GI50 (SNB-19 CNS): 1.11 µM
- TGI (SNB-19 CNS): 2.37 µM
- GI50 (SNB-75 CNS): 1.19 µM
- TGI (SNB-75 CNS): 2.42 µM
- GI50 (SR leukemia): 0.744 µM
- TGI (SR leukemia): 12.1 µM
- GI50 (SW-620 colon): 0.676 µM
- TGI (SW-620 colon): 2.18 µM
- GI50 (T-47D breast): 0.332 µM
- TGI (T-47D breast): 1.42 µM
- GI50 (TK-10 renal): 3.11 µM
- TGI (TK-10 renal): 6.74 µM
- GI50 (U251 CNS): 0.36 µM
- TGI (U251 CNS): 1.38 µM
- GI50 (UACC-257 melanoma): 0.306 µM
- TGI (UACC-257 melanoma): 1.08 µM
- GI50 (UACC-62 melanoma): 0.216 µM
- TGI (UACC-62 melanoma): 0.594 µM
- GI50 (UO-31 renal): 1.08 µM
- TGI (UO-31 renal): 2.28 µM
